# From ChEMBL document CHEMBL5291721, “A preclinical secondary pharmacology resource illuminates target-adverse drug reaction associations of marketed drugs” (Nat Commun, 2023)
# Key:
# Endothelin-1 receptor = molecular target: T1, Endothelin-1 receptor (Homo sapiens, UniProt P25101)
# T1 sequence (P25101 whole entry): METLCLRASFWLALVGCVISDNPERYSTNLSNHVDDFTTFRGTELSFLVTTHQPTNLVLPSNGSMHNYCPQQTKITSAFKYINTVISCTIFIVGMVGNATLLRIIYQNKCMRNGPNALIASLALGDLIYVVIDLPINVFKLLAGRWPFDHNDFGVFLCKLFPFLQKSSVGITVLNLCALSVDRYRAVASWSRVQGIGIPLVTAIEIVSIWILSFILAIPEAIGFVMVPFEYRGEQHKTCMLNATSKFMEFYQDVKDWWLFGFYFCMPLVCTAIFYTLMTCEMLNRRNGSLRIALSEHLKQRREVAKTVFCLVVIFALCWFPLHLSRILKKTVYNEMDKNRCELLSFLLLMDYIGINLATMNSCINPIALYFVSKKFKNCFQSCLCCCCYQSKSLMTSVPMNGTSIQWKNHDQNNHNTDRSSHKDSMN
# [1] = molecular target: T2, Alpha-2C adrenergic receptor (Homo sapiens, UniProt P18825); assay type: functional
# T2 sequence (P18825 whole entry): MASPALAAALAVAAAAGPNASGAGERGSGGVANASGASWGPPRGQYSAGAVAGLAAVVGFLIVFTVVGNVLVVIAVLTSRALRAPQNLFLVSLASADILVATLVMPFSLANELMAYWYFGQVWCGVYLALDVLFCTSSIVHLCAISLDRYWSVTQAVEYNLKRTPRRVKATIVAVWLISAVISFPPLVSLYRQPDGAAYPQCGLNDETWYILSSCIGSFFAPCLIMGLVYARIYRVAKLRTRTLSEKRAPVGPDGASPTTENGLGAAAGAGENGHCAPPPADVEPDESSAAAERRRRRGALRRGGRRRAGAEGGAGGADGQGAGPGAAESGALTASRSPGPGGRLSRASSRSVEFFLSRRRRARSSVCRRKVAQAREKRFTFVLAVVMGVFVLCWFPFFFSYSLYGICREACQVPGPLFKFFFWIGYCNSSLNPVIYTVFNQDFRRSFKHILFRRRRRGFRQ
# [2] = molecular target: 5-hydroxytryptamine receptor 2B (Homo sapiens, UniProt P41595); assay type: functional, cell-based
# [3] = molecular target: Beta-1 adrenergic receptor (Homo sapiens, UniProt P08588); assay type: functional
# [4] = molecular target: T3, Alpha-2A adrenergic receptor (Homo sapiens, UniProt P08913); assay type: functional, cell-based
# T3 sequence (P08913 whole entry): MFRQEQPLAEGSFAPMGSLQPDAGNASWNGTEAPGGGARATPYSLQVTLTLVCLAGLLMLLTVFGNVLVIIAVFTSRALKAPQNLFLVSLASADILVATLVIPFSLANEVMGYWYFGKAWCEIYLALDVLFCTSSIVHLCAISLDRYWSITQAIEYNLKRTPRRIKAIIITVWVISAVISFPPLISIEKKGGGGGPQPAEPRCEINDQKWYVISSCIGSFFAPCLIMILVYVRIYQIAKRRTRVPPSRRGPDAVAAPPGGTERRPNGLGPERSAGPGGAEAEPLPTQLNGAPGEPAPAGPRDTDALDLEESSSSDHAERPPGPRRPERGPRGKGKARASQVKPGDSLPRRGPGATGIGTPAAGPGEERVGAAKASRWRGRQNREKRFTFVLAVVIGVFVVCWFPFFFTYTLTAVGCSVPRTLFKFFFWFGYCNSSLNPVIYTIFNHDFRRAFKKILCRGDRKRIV
# Thromboxane A2 receptor = molecular target: T4, Thromboxane A2 receptor (Homo sapiens, UniProt P21731)
# T4 sequence (P21731 whole entry): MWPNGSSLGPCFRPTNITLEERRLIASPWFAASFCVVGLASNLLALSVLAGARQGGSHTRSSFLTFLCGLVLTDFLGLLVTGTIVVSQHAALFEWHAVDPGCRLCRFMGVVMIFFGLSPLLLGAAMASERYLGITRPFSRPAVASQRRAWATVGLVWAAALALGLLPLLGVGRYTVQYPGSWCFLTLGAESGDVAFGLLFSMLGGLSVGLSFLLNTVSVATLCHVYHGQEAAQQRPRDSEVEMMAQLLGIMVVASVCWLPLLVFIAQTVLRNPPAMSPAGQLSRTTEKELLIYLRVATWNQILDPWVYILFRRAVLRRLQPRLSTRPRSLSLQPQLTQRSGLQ
# [5] = molecular target: T5, Alpha-1A adrenergic receptor (Homo sapiens, UniProt P35348); assay type: functional, cell-based
# T5 sequence (P35348 whole entry): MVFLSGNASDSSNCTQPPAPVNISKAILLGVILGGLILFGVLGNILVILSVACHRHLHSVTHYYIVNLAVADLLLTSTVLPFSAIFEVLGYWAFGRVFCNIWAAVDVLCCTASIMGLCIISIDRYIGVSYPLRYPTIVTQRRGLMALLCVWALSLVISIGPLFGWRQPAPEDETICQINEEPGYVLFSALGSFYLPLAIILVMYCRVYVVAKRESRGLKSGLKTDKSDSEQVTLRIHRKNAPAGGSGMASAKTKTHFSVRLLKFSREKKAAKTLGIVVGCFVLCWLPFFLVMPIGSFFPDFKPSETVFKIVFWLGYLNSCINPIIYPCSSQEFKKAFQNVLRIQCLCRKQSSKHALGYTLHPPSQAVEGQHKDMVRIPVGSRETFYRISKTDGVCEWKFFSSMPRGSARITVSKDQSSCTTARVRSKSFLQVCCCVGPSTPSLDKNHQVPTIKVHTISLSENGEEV
# [6] = molecular target: T6, Alpha-2B adrenergic receptor (Homo sapiens, UniProt P18089)
# T6 sequence (P18089 whole entry): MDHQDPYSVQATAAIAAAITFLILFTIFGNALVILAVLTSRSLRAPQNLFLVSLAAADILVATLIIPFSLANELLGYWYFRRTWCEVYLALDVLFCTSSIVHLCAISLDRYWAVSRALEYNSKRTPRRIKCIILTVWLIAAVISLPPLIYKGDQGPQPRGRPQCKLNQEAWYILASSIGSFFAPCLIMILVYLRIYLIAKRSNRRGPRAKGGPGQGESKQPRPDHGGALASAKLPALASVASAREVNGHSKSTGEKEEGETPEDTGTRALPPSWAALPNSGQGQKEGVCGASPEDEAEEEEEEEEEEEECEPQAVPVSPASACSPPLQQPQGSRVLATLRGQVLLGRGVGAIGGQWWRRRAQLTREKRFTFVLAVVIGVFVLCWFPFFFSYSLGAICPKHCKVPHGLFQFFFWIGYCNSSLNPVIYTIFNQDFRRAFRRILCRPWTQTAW
# Note: assay procedure not described here.
# 5-hydroxytryptamine receptor 2B, sequence (P41595 whole entry): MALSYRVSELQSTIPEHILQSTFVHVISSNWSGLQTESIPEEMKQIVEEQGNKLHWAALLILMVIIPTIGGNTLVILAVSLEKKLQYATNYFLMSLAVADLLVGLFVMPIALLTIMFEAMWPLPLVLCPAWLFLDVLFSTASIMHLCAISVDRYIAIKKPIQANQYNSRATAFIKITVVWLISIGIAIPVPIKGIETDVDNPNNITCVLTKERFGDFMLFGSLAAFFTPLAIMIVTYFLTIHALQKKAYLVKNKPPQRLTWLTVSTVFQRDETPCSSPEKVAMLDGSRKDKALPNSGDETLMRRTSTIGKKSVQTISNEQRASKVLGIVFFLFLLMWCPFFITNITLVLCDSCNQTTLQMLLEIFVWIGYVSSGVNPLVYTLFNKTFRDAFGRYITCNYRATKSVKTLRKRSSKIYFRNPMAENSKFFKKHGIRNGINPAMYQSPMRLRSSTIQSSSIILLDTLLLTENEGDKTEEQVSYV
# Beta-1 adrenergic receptor, sequence (P08588 whole entry): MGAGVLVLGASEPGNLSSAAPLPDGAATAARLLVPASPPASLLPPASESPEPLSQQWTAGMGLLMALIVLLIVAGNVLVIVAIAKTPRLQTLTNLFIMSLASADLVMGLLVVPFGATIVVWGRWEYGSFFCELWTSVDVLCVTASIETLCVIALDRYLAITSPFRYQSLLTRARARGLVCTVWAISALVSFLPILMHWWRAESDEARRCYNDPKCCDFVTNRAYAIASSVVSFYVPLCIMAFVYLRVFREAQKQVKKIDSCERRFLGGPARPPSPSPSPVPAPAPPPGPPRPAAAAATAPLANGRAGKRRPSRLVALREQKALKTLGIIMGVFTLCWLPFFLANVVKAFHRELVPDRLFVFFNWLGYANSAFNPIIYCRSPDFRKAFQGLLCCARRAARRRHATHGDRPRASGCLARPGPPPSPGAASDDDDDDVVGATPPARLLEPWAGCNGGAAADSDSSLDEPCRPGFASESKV
Compound,AC50 (Endothelin-1 receptor),AC50 [1],AC50 [2],AC50 [3],AC50 [4],AC50 (Thromboxane A2 receptor),AC50 [5],AC50 [6]
COc1ccc(/C=C/C(=O)Nc2ccccc2C(=O)O)cc1OC,> 30 µM,> 30 µM,> 30 µM,> 30 µM,> 30 µM,> 30 µM,,
NCCCC(O)(P(=O)(O)O)P(=O)(O)O [ALENDRONIC ACID],> 30 µM,> 10 µM,,> 10 µM,> 10 µM,> 30 µM,,
Nc1ccc(C(=O)O)c(O)c1 [AMINOSALICYLIC ACID],> 30 µM,> 30 µM,> 30 µM,> 30 µM,> 30 µM,> 30 µM,> 30 µM,
COc1cc(OC)c(C(=O)CCCN2CCCC2)c(OC)c1 [BUFLOMEDIL],> 30 µM,13 µM,> 30 µM,> 30 µM,> 30 µM,> 30 µM,> 30 µM,
CS(=O)(=O)OCCCCOS(C)(=O)=O [BUSULFAN],> 30 µM,> 30 µM,> 30 µM,> 30 µM,> 30 µM,,> 30 µM,
CCCCCCNC(=O)n1cc(F)c(=O)[nH]c1=O [CARMOFUR],> 30 µM,> 30 µM,> 30 µM,> 30 µM,> 30 µM,> 30 µM,,
CC(C)(C)NCC(O)c1cc(Cl)c(N)c(Cl)c1 (centres undefined) [CLENBUTEROL],> 30 µM,> 30 µM,> 30 µM,0.112 µM,> 30 µM,> 30 µM,> 30 µM,
COc1cccc2c1C(=O)c1c(O)c3c(c(O)c1C2=O)C[C@@](O)(C(C)=O)C[C@@H]3O[C@H]1C[C@H](N)[C@H](O)[C@H](C)O1 [DAUNORUBICIN],> 30 µM,17.5 µM,,28 µM,,25 µM,,
CC(=O)OCC(CCn1cnc2cnc(N)nc21)COC(C)=O [FAMCICLOVIR],> 30 µM,> 10 µM,> 10 µM,> 10 µM,> 10 µM,> 30 µM,> 30 µM,
Nc1ccn([C@@H]2O[C@H](CO)[C@@H](O)C2(F)F)c(=O)n1 [GEMCITABINE],,> 10 µM,> 10 µM,> 30 µM,> 10 µM,> 30 µM,> 30 µM,
COC1=C(OC)C(=O)C(CCCCCCCCCCO)=C(C)C1=O [IDEBENONE],> 30 µM,> 10 µM,> 10 µM,> 10 µM,> 10 µM,31.2 µM,> 30 µM,
CC1(C)C(/C=C/C=C/C=C/C=C2\N(CCCCS(=O)(=O)O)c3ccc4ccccc4c3C2(C)C)=[N+](CCCCS(=O)(=O)[O-])c2ccc3ccccc3c21 [INDOCYANINE GREEN ACID FORM],> 30 µM,9.7 µM,,9.4 µM,> 30 µM,,,6.9 µM
Nc1nc2c(c(=O)[nH]1)N(C=O)C(CNc1ccc(C(=O)N[C@@H](CCC(=O)O)C(=O)O)cc1)CN2 (some centres undefined) [LEUCOVORIN],> 30 µM,> 30 µM,> 30 µM,> 30 µM,> 30 µM,> 30 µM,> 30 µM,
CC#CCn1c(N2CCC[C@@H](N)C2)nc2c1c(=O)n(Cc1nc(C)c3ccccc3n1)c(=O)n2C [LINAGLIPTIN],,> 10 µM,> 10 µM,> 10 µM,> 10 µM,> 30 µM,,> 10 µM
O=C1CN=C(c2ccccc2)c2cc(Cl)ccc2N1 [NORDAZEPAM],> 30 µM,> 10 µM,> 10 µM,> 10 µM,> 10 µM,> 30 µM,,> 10 µM
CCn1cc(C(=O)O)c(=O)c2cc(F)c(N3CCN(C)CC3)cc21 [PEFLOXACIN],> 30 µM,> 30 µM,> 30 µM,> 30 µM,> 30 µM,,,
C[n+]1ccccc1/C=N/O [PRALIDOXIME],,> 30 µM,> 30 µM,,> 30 µM,,> 30 µM,
CCCNC(C)C(=O)Nc1ccccc1C (centres undefined) [PRILOCAINE],> 30 µM,> 30 µM,> 30 µM,> 30 µM,> 30 µM,,> 30 µM,
CC(C)CC(N(C)C)C1(c2ccc(Cl)cc2)CCC1 (centres undefined) [SIBUTRAMINE],> 30 µM,3.8 µM,,> 10 µM,> 30 µM,> 30 µM,> 30 µM,
[H]/N=C(/N)N[C@H]1[C@H](O)[C@@H](O)[C@H](O[C@@H]2O[C@@H](C)[C@](O)(C=O)[C@H]2O[C@@H]2O[C@@H](CO)[C@H](O)[C@@H](O)[C@@H]2NC)[C@@H](N/C(N)=N\[H])[C@@H]1O [STREPTOMYCIN],> 30 µM,> 30 µM,> 30 µM,> 30 µM,> 30 µM,> 30 µM,> 30 µM,
CC(C)(C)NC[C@H](O)COc1nsnc1N1CCOCC1 [TIMOLOL],> 30 µM,> 30 µM,> 30 µM,,> 30 µM,> 30 µM,> 30 µM,
Cc1cccc(N(C)C(=S)Oc2ccc3ccccc3c2)c1 [TOLNAFTATE],,> 30 µM,> 10 µM,> 10 µM,> 10 µM,> 10 µM,> 30 µM,
CN1[C@@H]2CC[C@H]1C[C@@H](OC(=O)c1c[nH]c3ccccc13)C2 [TROPISETRON],> 30 µM,27 µM,15 µM,> 30 µM,> 30 µM,> 30 µM,> 30 µM,
COc1ccc(C(CN(C)C)C2(O)CCCCC2)cc1 (centres undefined) [VENLAFAXINE],,> 10 µM,,> 10 µM,> 10 µM,,> 30 µM,
